Consider ten compounds from patent US10047051B2, “Substituted pyridines and method of use” (AbbVie S.á{acute over (.)}r.l., priority 2015, dated 2018).

Common to all, as to assay type: cell-based
Assay [1] has as its target T1, CFTR G551D mutant (Homo sapiens, UniProt P13569, G551D).
T1 construct: expressed in transfected cells; host or cells: HEK293 cells, reverse transfection with plasmids
As to the kind of experiment: YFP-halide influx assay for the CFTR-G551D mutation (HEK293 cells). The conditions noted are these: forskolin 10.67 μM. An outline of the steps:
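Channel opening read as I⁻-driven quenching of a YFP H148Q/I152L/F47L reporter over 7 s post-injection, expressed as 1−F/F0 and fitted against concentration for EC50. Cells were HEK293 co-transfected at seeding with G551D CFTR plus reporter, then grown 24 h at 37 °C, 5% CO2.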

The target of assay [2] is T2, CFTR-R117H (Homo sapiens, UniProt P13569, R117H).
T2 construct: expressed in transfected cells
T2 sequence (P13569 whole entry R117H): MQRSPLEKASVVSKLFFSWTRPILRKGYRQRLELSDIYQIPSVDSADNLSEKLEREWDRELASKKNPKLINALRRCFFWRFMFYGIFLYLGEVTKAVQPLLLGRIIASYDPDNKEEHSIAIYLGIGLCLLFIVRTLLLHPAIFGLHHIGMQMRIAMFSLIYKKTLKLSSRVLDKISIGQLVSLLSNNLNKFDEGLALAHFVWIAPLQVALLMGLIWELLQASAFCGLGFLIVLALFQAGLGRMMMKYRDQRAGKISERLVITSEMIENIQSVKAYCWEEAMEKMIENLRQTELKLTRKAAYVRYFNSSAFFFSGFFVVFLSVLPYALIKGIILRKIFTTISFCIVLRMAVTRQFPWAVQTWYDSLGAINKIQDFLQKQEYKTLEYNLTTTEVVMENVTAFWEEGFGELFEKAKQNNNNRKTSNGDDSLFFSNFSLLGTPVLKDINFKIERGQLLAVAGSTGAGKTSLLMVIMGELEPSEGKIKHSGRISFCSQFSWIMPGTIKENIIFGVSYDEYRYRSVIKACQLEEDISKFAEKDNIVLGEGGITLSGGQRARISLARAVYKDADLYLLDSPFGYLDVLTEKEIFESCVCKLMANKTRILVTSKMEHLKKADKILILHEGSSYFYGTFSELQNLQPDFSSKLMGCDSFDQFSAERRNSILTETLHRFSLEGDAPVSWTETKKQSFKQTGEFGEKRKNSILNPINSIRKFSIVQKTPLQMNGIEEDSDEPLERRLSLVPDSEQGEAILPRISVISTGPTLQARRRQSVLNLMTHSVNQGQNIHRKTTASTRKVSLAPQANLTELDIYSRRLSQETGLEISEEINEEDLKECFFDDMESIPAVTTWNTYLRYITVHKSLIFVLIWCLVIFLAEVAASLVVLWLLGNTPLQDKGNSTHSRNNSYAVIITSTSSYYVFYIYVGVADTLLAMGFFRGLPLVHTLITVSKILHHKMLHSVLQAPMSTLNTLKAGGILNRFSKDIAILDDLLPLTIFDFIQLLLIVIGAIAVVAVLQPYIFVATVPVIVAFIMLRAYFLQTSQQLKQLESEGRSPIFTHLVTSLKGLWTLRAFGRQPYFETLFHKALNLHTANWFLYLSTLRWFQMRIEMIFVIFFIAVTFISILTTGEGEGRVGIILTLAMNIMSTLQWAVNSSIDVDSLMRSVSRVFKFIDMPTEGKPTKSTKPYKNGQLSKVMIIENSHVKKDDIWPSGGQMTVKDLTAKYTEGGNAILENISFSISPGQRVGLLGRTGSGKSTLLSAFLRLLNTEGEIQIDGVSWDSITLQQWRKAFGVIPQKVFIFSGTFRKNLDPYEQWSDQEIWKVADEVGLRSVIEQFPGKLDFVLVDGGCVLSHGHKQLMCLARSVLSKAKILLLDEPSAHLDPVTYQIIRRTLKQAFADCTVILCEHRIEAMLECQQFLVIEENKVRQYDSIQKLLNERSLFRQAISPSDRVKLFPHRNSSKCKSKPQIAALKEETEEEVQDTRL
Briefly: YFP-halide influx assay for the CFTR-R117H. The source says: (§1) The YFP halide influx assay measured the functionality of the cystic fibrosis Transmembrane Conductance regulator (CFTR) channels. The assay was used to evaluate the capacity of compounds to increase the channel opening of existing mutant CFTR channels in the membrane. It makes use of the observation that the yellow fluorescent protein (YFP) variant YFP H148Q, I152L, F47L has its fluorescence substantially quenched by halide ions like Cl^− and I^− (Galietta, L. J. V., Haggie, P. M., Verkman, A. S., 2001. Green fluorescent protein-based halide indicators with improved chloride and iodide affinities. FEBS Lett. 499, 220-224. doi:10.1016/S0014-5793(01)02561-3).
(§2) For this purpose, HEK293-cells were seeded in 96 well plates. During seeding, the cells were reverse-transfected with plasmid vectors that direct the expression of the CFTR G551D mutant and of the YFP reporter. Cells were incubated at 37° C., 5% CO2 for 24 hours so as to allow for sufficient expression of the CFTR protein.
(§3) The I^−-induced quenching of fluorescence was recorded immediately after injection of I^− for 7 seconds. The capacity of a compound to increase the channel opening was directly correlated with the decrease in fluorescence, and was expressed as (1−(fluorescence after 7 seconds (F)/fluorescence before injection (F0))) and an EC50 was derived from a (1−F/F0) vs compound concentration plot.
(§4) Similar YHA assays were developed for other channel gating defective or channel conductance defective CFTR mutants to determine effect of compound on channel activity. Examples of mutants are G178R, G1349D, S549N, R117H, R334W. This assay is also used for additional class I CFTR mutants, including G542X, W1282X; class II mutants including N1303K, and for class III mutants including S1251N; or wild-type CFTR.

Assay [3] addresses T3, CFTR-S549N (Homo sapiens, UniProt P13569, S549N).
T3 construct: expressed in transfected cells
Briefly: YFP-halide influx assay for the CFTR-S549N. Also noted: % Activation: concentration or dose not given beside the values.
Source text: as §1, §2, §3, §4

The target in assay [4] is T4, CFTR ΔF508 mutant (Homo sapiens, UniProt P13569, DEL508-508).
T4 construct: expressed in transfected cells; host or cells: CFBE41o- cells, adenoviral transduction
T4 sequence (P13569 with tags, fused parts or gaps DEL508-508): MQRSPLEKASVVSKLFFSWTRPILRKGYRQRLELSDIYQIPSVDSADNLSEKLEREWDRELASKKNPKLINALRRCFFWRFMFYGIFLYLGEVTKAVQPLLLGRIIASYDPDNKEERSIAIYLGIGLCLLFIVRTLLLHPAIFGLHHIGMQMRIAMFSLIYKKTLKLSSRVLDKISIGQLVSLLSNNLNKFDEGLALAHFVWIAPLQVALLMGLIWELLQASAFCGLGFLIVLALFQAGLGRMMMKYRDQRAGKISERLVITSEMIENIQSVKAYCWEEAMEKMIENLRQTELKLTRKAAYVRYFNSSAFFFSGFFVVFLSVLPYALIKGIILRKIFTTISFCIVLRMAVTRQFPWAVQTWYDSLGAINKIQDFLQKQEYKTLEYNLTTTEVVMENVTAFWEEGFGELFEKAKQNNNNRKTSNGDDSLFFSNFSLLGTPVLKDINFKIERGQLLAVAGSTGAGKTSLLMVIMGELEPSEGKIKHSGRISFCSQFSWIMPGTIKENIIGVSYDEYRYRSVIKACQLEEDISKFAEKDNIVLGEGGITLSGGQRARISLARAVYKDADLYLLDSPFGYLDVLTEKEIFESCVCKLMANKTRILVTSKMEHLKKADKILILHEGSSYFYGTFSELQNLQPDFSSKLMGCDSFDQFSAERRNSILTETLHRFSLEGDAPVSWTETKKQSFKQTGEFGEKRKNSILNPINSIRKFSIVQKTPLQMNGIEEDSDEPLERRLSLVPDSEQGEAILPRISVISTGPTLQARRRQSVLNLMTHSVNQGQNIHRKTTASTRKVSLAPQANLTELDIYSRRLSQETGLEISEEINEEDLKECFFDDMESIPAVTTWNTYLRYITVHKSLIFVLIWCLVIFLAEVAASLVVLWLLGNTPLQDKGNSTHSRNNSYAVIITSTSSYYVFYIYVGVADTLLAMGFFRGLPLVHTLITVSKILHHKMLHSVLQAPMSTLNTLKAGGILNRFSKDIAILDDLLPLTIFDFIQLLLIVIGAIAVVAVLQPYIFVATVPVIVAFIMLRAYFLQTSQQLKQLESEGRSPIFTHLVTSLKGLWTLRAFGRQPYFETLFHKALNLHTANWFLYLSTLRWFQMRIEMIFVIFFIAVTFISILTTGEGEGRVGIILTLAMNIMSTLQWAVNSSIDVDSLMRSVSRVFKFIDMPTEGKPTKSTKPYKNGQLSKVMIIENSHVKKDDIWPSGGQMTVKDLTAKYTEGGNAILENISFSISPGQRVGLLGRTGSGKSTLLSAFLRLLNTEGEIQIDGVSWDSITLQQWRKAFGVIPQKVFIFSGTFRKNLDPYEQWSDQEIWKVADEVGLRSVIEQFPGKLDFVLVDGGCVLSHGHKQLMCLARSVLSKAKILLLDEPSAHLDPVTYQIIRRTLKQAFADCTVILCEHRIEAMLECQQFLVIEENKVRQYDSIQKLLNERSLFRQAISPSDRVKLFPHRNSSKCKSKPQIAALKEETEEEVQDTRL
Briefly: YFP-halide influx assay for the CFTR-ΔF508 mutation (CFBE41o- cells). Conditions: forskolin 10.67 μM; for EC50: from (1−F/F0) vs concentration plot. An outline of the steps:
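EC50 derived from plotting 1−F/F0 (fluorescence 36 s after iodide injection over pre-injection value) against compound concentration. Cells: CFBE41o- transduced with ΔF508-CFTR and YFP quench reporter, corrected 24 h at 27° C or by a CFTR modulator at 37° C.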

In assay [5] the target is T5, CFTR-G178R (Homo sapiens, UniProt P13569, G178R).
T5 construct: expressed in transfected cells
T5 sequence (P13569 whole entry G178R): as the sequence (P13569 whole entry R117H) above, with H117R, G178R counted along it
Briefly: YFP-halide influx assay for the CFTR-G178R.
Source text: as §1, §2, §3, §4

Assay [6] addresses T6, CFTR-G1349D (Homo sapiens, UniProt P13569, G1349D).
T6 construct: expressed in transfected cells
As to the kind of experiment: YFP-halide influx assay for the CFTR-G1349D.
Source text: as §1, §2, §3, §4

The EC50 is the concentration giving half of the maximal effect.

T1 sequence (P13569 whole entry G551D): as the sequence (P13569 whole entry R117H) above, with H117R, G551D counted along it
T6 sequence (P13569 whole entry G1349D): as the sequence (P13569 whole entry R117H) above, with H117R, G1349D counted along it
T3 sequence (P13569 whole entry S549N): as the sequence (P13569 whole entry R117H) above, with H117R, S549N counted along it

Take `Nc1cc(S(=O)(=O)c2ccc(C(F)(F)F)cc2)cnc1C(=O)NCCO` [Compound 217, 3-amino-N-(2-hydroxyethyl)-5-{[4-(trifluoromethyl)phenyl]sulfonyl}pyridine-2-carboxamide]: the “% Activation” value is recorded as 51.8% in assay [1]; 92.1% in assay [2]; 55.9% in assay [3]; 103.4% in assay [4]; 63.9% in assay [5]; 62.9% in assay [6]. The EC50 stood at 3030 nM in assay [1]; 765 nM in assay [2]; 401 nM in assay [3]; 36 nM in assay [4]; 933 nM in assay [5]; 1350 nM in assay [6].

In the case of `C[C@H](O)CNC(=O)c1ncc(S(=O)(=O)c2ccccc2OC(F)(F)F)cc1N` [Compound 82, 3-amino-N-[(2S)-2-hydroxypropyl]-5-{[2-(trifluoromethoxy)phenyl]sulfonyl}pyridine-2-carboxamide], the “% Activation” value was determined as 89.9% in assay [1]; 128.3% in assay [2]; 106.9% in assay [3]; 106.0% in assay [4]; 106.7% in assay [5]; 92.74% in assay [6]. For the same compound, the EC50 in assay [1] came to 795 nM; in assay [2], 1050 nM; in assay [3] it was 122 nM; in assay [4] it was 2.7 nM; in assay [5], 84.7 nM; in assay [6], 102 nM.

In the case of `COC[C@H](O)CNC(=O)c1ncc(S(=O)(=O)c2ccccc2OC(F)(F)F)cc1N` [Compound 177, 3-amino-N-[(2R)-2-hydroxy-3-methoxypropyl]-5-{[2-(trifluoromethoxy)phenyl]sulfonyl}pyridine-2-carboxamide], the “% Activation” value in assay [1] came to 91.4%; in assay [2], 103.7%; in assay [3], 104.0%; in assay [4], 102.1%; in assay [5], 104.0%; in assay [6], 96.0%. Also, the EC50 in assay [1] came out at 430 nM; in assay [2], 253 nM; in assay [3], 80.4 nM; in assay [4], 3.6 nM; in assay [5] it was 77.8 nM; in assay [6], 97.9 nM.

Turning to `Nc1cc(S(=O)(=O)c2ccc(F)cc2)c(-c2ccc(F)cc2)nc1C(=O)NC[C@@H](O)C(F)(F)F` [Compound 259, 3-amino-6-(4-fluorophenyl)-5-[(4-fluorophenyl)sulfonyl]-N-[(2R)-3,3,3-trifluoro-2-hydroxypropyl]pyridine-2-carboxamide], the “% Activation” value is on record as 92.6% in assay [1]; 126.0% in assay [2]; 105.0% in assay [3]; 102.5% in assay [4]; 97.2% in assay [5]; 91.0% in assay [6]. Further, the EC50 in assay [1] came out at 1120 nM; in assay [2] it was 225 nM; in assay [3], 74.4 nM; in assay [4] it was 4.3 nM; in assay [5] it was 149 nM; in assay [6] it was 173 nM.

As for `Nc1cc(S(=O)(=O)c2ccc(OC(F)(F)F)cc2)cnc1C(=O)Nc1cc[nH]n1` [Compound 291, 3-amino-N-(1H-pyrazol-3-yl)-5-{[4-(trifluoromethoxy)phenyl]sulfonyl}pyridine-2-carboxamide], the “% Activation” value in assay [1] was determined as 44.7%; in assay [2], 74.2%; in assay [3], 75.6%; in assay [4] it was 98.2%; in assay [5] it was 79.3%; in assay [6] it was 79.8%. Also, the EC50 was 242 nM in assay [1]; 155 nM in assay [2]; 92.1 nM in assay [3]; 5.5 nM in assay [4]; 109 nM in assay [5]; 149 nM in assay [6].

On to `Nc1cc(S(=O)(=O)c2ccccc2OC(F)(F)F)cnc1C(=O)NCCO` [Compound 75, 3-amino-N-(2-hydroxyethyl)-5-{[2-(trifluoromethoxy)phenyl]sulfonyl}pyridine-2-carboxamide], for which the “% Activation” value in assay [1] is 68.5%; in assay [2], 98.4%; in assay [4] it was 121.0%; in assay [5] it was 94.3%; in assay [6], 98.7%. Besides, the 50% effective concentration (EC50) in assay [1] amounted to 1510 nM; in assay [2], 472 nM; in assay [3], 251 nM; in assay [4] it was 7.6 nM; in assay [5], 323 nM; in assay [6] it was 284 nM.

Regarding `Nc1cc(S(=O)(=O)c2ccc(C(F)(F)F)cc2)cnc1C(=O)NCC(F)(F)CO` [Compound 241, 3-amino-N-(2,2-difluoro-3-hydroxypropyl)-5-{[4-(trifluoromethyl)phenyl]sulfonyl}pyridine-2-carboxamide], the “% Activation” value is on record as 65.9% in assay [1]; 103.0% in assay [2]; 90.7% in assay [3]; 117.0% in assay [4]; 84.5% in assay [5]; 71.0% in assay [6]. Also, the EC50 in assay [1] was 675 nM; in assay [2] it was 608 nM; in assay [3], 691 nM; in assay [4], 11.6 nM; in assay [5] it was 502 nM; in assay [6] it was 1110 nM.

On to `Nc1cc(S(=O)(=O)c2ccc(OC(F)(F)F)cc2)cnc1C(=O)N1CC(O)(C(F)(F)F)C1` [Compound 79, (3-amino-5-{[4-(trifluoromethoxy)phenyl]sulfonyl}pyridin-2-yl)[3-hydroxy-3-(trifluoromethyl)azetidin-1-yl]methanone], for which the “% Activation” value in assay [1] is 48.9%; in assay [2] it was 103.1%; in assay [3] it was 88.09%; in assay [4], 99.5%; in assay [5] it was 74.5%; in assay [6], 83.08%. In addition, the EC50 was 256 nM in assay [1]; 22.2 nM in assay [2]; 44.3 nM in assay [3]; 3.3 nM in assay [4]; 31.3 nM in assay [5]; 61.4 nM in assay [6].

On to `Nc1cc(S(=O)(=O)c2ccc(F)cc2)cnc1C(=O)N1CC(O)(C(F)(F)F)C1` [Compound 176, {3-amino-5-[(4-fluorophenyl)sulfonyl]pyridin-2-yl}[3-hydroxy-3-(trifluoromethyl)azetidin-1-yl]methanone], for which the “% Activation” value is listed as 46.0% in assay [1]; 111.0% in assay [2]; 92.0% in assay [3]; 93.4% in assay [4]; 79.1% in assay [5]; 72.8% in assay [6]. In addition, the EC50 stood at 69.4 nM in assay [1]; 22.7 nM in assay [2]; 25.7 nM in assay [3]; 1 nM in assay [4]; 12.7 nM in assay [5]; 29.5 nM in assay [6].

Consider `Nc1cc(S(=O)(=O)c2ccc(OC(F)(F)F)cc2)cnc1C(=O)N1CC(O)(C2CC2)C1` [Compound 86, (3-amino-5-{[4-(trifluoromethoxy)phenyl]sulfonyl}pyridin-2-yl)(3-cyclopropyl-3-hydroxyazetidin-1-yl)methanone], for which the “% Activation” value turned out to be 69.3% in assay [1]; 89.91% in assay [2]; 98.52% in assay [3]; 122.0% in assay [4]; 78.08% in assay [5]; 85.79% in assay [6]. The 50% effective concentration (EC50) in assay [1] came out at 332 nM; in assay [2], 59.5 nM; in assay [3], 139 nM; in assay [4], 3.1 nM; in assay [5], 32.5 nM; in assay [6] it was 55.3 nM.
